For test [1], the target named is Cyclin-dependent kinase 11B (Homo sapiens) (UniProt P21127). As to conditions: at 10 µM.
The target in test [2] is Mitogen-activated protein kinase kinase kinase kinase 1 (Homo sapiens) (UniProt Q92918). Kind of test: Selectivity interaction (Ambit KINOMEscan and KiNATiv profiling in Jurkat cells) EUB0000090b MAP4K1. It is filed as cell-based. As to conditions: at 1 µM.
Test [3] deals with T1, Tyrosine-protein kinase ITK/TSK (Homo sapiens) (UniProt Q08881).
T1 sequence (whole entry): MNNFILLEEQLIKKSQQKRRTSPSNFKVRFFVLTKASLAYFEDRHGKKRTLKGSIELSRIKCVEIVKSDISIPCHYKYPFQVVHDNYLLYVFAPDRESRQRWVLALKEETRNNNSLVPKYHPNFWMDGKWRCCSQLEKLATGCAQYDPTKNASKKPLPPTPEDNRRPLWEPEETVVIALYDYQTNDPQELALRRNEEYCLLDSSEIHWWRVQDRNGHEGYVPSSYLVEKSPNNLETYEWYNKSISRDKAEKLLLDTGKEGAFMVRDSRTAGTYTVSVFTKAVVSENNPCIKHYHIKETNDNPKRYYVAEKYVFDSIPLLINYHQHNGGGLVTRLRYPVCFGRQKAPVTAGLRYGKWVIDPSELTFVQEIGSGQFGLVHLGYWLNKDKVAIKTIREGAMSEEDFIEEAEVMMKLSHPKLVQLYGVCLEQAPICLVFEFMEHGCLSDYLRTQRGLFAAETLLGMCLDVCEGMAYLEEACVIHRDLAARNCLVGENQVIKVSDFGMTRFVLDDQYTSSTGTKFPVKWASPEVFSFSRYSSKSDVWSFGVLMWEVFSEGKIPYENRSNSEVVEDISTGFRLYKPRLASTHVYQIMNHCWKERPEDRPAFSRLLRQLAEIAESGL
Kind of test: Selectivity interaction (KinomeScan (DiscoverX)) EUB0000092b ITK. As to conditions: at 10 µM.

A further test deals with Activated CDC42 kinase 1 (Homo sapiens, UniProt Q07912). Kind of test: Selectivity interaction (KinomeScan (DiscoverX)) EUB0001049a TNK2. As to conditions: at 1 µM.
Activated CDC42 kinase 1, sequence (Q07912 whole entry, looked up): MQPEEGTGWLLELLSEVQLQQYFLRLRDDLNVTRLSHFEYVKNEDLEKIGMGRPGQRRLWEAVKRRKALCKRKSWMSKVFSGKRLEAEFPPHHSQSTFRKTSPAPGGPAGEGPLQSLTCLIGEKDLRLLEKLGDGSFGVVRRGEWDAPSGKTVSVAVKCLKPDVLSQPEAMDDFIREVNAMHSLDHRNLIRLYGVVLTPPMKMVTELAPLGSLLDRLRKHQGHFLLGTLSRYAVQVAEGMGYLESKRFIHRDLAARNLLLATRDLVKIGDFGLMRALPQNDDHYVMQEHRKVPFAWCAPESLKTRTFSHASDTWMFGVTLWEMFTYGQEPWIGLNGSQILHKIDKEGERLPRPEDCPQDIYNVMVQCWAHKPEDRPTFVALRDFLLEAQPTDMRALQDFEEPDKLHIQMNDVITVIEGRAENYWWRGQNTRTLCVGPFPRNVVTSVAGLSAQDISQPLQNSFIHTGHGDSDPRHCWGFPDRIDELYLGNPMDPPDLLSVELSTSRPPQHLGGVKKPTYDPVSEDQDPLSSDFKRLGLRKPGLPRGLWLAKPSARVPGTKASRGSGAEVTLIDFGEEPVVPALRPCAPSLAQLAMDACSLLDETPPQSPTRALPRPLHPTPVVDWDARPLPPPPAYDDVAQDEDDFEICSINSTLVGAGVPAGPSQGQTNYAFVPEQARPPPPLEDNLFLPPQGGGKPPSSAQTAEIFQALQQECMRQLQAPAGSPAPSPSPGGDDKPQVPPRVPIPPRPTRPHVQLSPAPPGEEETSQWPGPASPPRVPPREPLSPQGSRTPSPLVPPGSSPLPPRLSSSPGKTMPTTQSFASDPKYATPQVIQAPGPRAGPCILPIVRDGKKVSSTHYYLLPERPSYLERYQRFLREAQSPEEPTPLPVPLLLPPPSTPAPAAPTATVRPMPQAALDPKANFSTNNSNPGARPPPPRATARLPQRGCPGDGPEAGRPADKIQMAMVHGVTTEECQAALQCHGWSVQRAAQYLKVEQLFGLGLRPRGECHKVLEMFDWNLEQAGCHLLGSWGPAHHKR
Test [4] concerns the target SRSF protein kinase 2 (Homo sapiens) (UniProt P78362). Put plainly: Selectivity interaction (KinomeScan (DiscoverX)) EUB0000655a SRPK2. To be noted: at 10 µM.
Test [5] concerns the target T2, Serine/threonine-protein kinase TAO1 (Homo sapiens) (UniProt Q7L7X3).
T2 sequence (whole entry): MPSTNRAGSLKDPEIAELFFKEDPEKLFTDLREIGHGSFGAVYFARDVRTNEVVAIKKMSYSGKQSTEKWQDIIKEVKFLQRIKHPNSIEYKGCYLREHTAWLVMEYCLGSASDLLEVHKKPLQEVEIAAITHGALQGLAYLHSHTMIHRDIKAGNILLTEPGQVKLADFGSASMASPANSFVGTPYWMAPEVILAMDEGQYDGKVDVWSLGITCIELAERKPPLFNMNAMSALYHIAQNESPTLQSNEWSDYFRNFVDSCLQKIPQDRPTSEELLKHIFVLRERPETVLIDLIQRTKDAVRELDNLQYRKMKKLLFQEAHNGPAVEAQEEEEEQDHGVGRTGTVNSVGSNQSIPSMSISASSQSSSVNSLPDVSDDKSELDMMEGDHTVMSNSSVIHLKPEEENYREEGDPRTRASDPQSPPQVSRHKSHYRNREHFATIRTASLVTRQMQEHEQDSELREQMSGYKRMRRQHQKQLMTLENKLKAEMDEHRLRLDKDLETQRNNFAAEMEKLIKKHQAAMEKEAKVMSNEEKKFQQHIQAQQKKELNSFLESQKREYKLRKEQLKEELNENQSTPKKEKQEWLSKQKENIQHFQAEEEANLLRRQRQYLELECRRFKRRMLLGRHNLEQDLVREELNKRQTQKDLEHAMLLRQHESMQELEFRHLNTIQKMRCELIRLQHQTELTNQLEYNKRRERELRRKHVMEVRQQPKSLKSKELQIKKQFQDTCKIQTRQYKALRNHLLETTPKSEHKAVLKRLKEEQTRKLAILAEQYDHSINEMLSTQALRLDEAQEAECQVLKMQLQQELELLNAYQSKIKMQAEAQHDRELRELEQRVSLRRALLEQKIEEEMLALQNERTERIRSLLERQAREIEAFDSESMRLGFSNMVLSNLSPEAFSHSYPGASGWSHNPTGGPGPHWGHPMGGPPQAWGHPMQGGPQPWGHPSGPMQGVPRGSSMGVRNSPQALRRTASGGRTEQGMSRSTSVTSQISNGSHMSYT
Kind of test: Selectivity interaction (KinomeScan (DiscoverX)) EUB0000695a TAOK1. To be noted: at 100 nM.

Test [6] has as its system Tyrosine-protein kinase ABL1 (Homo sapiens), P00519 [F317I]. Kind of test: Selectivity interaction (KinomeScan (DiscoverX)) EUB0000045b ABL1. As to conditions: at 10 µM.
Test [7] addresses T3, Serine/threonine-protein kinase STK11 (Homo sapiens) (UniProt Q15831).
T3 sequence (whole entry): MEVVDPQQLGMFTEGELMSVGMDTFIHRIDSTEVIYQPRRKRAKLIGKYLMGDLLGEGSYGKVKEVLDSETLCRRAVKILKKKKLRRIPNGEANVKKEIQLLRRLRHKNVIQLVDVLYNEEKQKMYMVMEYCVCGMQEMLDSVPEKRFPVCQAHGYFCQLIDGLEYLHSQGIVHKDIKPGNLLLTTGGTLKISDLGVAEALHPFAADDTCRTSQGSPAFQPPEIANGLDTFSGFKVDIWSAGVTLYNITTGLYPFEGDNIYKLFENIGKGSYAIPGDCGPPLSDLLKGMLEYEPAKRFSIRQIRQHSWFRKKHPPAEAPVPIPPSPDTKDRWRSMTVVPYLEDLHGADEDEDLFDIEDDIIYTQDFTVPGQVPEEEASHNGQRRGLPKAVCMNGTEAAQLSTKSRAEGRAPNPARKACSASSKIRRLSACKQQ
Kind of test: Selectivity interaction (KinomeScan (DiscoverX)) EUB0000607a STK11. As to conditions: at 10 µM.

Test [8] has as its target Tyrosine-protein kinase Blk (Homo sapiens) (UniProt P51451). Put plainly: Selectivity interaction (KinomeScan (DiscoverX)) EUB0000229b BLK. To be noted: at 10 µM.
For another test, the target named is Vasopressin V2 receptor (Homo sapiens, UniProt P30518). Put plainly: Selectivity interaction (Vasopressin V2 receptor binding assay, human recombinant ) EUB0000877a AVPR2.

Molecules are shown by their SMILES. Where only a bound is given, the exact number is not on record here.

Tyrosine-protein kinase Blk (Homo sapiens), sequence (P51451 2-505 limits assumed): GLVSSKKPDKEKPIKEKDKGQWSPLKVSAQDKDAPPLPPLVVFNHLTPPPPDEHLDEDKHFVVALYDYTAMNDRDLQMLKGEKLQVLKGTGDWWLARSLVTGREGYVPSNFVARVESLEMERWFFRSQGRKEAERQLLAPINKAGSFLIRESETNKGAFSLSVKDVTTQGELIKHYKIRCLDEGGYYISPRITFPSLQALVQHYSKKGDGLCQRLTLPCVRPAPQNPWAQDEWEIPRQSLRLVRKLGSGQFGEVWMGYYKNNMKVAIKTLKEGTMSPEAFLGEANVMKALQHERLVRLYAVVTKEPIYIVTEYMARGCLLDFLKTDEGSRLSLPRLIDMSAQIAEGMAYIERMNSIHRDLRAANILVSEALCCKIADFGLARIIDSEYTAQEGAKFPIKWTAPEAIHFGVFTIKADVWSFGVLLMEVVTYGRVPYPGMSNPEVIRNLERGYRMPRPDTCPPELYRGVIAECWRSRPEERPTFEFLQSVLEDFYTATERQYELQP
Mitogen-activated protein kinase kinase kinase kinase 1 (Homo sapiens), sequence (Q92918 whole entry, looked up): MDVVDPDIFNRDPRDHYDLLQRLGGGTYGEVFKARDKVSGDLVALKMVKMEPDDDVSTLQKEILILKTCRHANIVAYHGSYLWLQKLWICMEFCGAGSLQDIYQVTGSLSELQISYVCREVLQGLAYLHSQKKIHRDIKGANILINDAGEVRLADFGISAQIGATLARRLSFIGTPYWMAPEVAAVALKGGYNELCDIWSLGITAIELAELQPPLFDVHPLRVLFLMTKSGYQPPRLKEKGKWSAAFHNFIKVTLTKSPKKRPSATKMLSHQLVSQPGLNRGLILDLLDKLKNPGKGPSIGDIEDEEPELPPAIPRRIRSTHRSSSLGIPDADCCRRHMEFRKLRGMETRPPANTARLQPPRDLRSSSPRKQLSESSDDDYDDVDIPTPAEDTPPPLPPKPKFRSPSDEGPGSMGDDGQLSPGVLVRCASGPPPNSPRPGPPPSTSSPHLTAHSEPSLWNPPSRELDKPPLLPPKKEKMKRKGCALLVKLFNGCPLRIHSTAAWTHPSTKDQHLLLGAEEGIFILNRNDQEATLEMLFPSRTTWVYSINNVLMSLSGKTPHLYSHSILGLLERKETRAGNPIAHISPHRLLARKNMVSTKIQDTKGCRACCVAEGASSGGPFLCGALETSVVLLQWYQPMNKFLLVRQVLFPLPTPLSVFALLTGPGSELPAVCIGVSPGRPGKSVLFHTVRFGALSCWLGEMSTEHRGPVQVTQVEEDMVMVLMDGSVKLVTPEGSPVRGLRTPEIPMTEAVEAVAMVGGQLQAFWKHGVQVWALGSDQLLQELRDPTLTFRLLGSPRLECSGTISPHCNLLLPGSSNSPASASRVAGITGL
Cyclin-dependent kinase 11B (Homo sapiens), sequence (P21127 whole entry): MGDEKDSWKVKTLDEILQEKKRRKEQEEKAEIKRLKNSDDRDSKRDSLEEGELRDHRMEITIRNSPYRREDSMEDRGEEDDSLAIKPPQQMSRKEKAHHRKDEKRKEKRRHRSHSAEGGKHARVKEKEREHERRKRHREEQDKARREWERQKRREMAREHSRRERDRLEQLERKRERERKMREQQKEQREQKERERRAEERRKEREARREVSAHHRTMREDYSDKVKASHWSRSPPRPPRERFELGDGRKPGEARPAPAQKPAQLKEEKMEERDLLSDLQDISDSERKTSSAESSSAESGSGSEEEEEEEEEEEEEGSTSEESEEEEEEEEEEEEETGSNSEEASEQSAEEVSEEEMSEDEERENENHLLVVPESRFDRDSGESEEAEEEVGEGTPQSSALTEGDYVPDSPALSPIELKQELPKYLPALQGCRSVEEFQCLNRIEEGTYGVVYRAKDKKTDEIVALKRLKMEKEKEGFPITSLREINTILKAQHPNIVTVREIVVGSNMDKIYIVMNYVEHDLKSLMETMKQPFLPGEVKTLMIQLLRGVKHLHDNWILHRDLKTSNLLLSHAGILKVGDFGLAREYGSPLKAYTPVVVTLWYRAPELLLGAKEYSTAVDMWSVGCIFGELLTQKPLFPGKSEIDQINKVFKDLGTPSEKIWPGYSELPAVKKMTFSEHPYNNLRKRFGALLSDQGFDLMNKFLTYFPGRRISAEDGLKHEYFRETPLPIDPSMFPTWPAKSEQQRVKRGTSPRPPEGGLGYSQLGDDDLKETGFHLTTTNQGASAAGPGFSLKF
SRSF protein kinase 2 (Homo sapiens), sequence (P78362 whole entry, looked up): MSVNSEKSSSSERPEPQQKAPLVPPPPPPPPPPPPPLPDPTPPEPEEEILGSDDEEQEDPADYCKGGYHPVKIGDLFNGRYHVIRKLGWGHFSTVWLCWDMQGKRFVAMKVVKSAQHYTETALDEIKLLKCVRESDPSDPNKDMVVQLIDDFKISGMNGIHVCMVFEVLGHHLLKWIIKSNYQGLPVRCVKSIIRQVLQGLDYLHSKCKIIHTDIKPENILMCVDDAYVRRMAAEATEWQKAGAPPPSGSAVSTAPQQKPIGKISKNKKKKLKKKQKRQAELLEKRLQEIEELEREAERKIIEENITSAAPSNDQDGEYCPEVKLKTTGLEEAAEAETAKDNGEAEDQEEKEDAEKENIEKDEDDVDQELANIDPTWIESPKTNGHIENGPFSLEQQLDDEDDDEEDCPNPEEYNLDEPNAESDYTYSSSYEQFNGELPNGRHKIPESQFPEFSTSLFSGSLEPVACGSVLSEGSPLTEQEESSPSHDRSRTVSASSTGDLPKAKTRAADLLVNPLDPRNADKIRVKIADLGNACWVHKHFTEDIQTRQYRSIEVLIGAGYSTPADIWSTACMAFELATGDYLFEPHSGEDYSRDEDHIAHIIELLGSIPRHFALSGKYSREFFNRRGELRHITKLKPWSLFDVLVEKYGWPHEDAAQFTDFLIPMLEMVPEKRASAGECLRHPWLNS
Tyrosine-protein kinase ABL1 (Homo sapiens), P00519 [F317I], sequence (P00519 whole entry F317I): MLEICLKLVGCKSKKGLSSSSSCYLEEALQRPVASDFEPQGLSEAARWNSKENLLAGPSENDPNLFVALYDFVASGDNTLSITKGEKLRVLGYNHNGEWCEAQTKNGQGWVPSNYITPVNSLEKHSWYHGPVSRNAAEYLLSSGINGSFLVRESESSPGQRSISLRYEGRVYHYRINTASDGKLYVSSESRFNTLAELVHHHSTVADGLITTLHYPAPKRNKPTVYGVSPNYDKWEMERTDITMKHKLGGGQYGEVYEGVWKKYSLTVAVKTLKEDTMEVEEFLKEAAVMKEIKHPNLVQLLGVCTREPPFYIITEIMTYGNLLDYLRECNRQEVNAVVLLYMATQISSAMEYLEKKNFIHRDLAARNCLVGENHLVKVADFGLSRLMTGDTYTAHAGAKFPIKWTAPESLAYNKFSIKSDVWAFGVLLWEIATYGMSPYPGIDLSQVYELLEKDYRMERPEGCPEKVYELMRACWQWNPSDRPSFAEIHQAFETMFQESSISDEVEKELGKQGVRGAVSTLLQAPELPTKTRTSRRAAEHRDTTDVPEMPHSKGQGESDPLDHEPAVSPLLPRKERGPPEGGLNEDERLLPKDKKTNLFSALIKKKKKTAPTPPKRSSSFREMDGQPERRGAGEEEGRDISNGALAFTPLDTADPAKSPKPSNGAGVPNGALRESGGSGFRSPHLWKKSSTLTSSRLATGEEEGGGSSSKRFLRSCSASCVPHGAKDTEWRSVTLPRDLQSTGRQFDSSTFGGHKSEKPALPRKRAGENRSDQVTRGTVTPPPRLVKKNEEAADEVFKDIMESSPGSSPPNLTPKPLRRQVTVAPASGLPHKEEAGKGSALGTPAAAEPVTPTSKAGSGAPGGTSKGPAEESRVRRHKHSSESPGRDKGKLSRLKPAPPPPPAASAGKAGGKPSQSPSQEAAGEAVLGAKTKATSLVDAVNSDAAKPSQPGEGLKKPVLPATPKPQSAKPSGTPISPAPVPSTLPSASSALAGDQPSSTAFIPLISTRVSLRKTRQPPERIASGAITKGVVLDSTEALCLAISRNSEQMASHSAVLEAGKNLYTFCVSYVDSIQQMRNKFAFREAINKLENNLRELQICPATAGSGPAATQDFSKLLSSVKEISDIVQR

Compound `Cc1cc([C@@H](C)Nc2ccccc2C(=O)O)c2nc(N3CCOCC3)cc(=O)n2c1` [AZD-6482] gave a % of control in [1] of 100%. In turn, `CN(C)C/C=C/C(=O)Nc1ccc(C(=O)N2CCCC(Nc3ncc(Cl)c(-c4c[nH]c5ccccc45)n3)C2)cc1` (stereo not given) registered a % of control in [2] of 80%. `CCC(=O)N1CCN(c2ccc(-n3c(=O)ccc4cnc5ccc(-c6cnc7ccccc7c6)cc5c43)cc2C(F)(F)F)CC1` gave a % of control in [3] of 100%. On Activated CDC42 kinase 1, `COc1cc(Nc2nc(C)cc(-c3cnn4nc(OC)ccc34)n2)cc(C(F)(F)F)c1` displayed a % of control of 77%. Take `CN(C)CCOc1ccc(-c2nc(-c3ccncc3)c(-c3ccc4c(c3)CC/C4=N\O)[nH]2)cc1`: the % of control in test [4] came to 100%. `Cc1cc(F)c(C(=O)Nc2cccc(-c3nncn3C(C)C)n2)cc1-n1cnc(C2CC2)c1` gave a % of control in [5] of 100%. As to `C=CC(=O)Nc1cc(-n2c(=O)ccc3cnc4ccc(-c5ccc(NS(C)(=O)=O)cc5)cc4c32)ccc1C`, the % of control in [6] amounted to 100%. Turning to `CNC(=O)Nc1ccc(-c2nc(N3CC4CCC(C3)O4)c3cnn(C4CCC5(CC4)OCCO5)c3n2)cc1`, the % of control in test [7] was found to be 80%.

In [8], `COc1cc(N(C)c2ccnc3ccc(C(F)(F)F)cc23)cc(OC)c1OC` registered a % binding of 100%.

In the case of `CCC(=O)N1CC[C@H](Nc2ncnc3c2CN(c2cnc(OC)c(C(F)(F)F)c2)CC3)C1` [LENIOLISIB], the IC50 (as a rule, the concentration that inhibits the measured activity by half) at Vasopressin V2 receptor is more than 30 µM.

The values are drawn from ChEMBL document CHEMBL5465560, “Selectivity Literature for EUbOPEN Chemogenomic Library” (2024).
